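Five compound concentrations were applied to cells in 96-well plates for 48 hours; endpoints were derived by simple linear interpolation of the resulting dose-response curve. GI50 is the concentration that inhibits growth by half.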 The source made the active and inactive calls. Rule as the data show it: active = GI50 up to about 1.1 µM and inactive = higher. Bounds are passed on as bounds.

What all share (experiment): growth of human tumour cells (NCI), 48 h
Assay [1] deals with A498.
Assay [2] relates to ACHN.
For assay [3], the system named is BT-549.
The subject of assay [4] is HCC 2998.
Assay [5] deals with HL-60.
In assay [6] the test system is K562.
In assay [7] the test system is KM12.
Assay [8] relates to MDA-N.
Assay [9] relates to MOLT-4.
Assay [10] relates to NCI-H460.
The subject of assay [11] is OVCAR-4.
Assay [12] has as its system OVCAR-5.
The test system of assay [13] is OVCAR-8.
Assay [14] deals with RPMI-8226.
For assay [15], the system named is SK-MEL-5.
Assay [16] has as its system SW-620.
Assay [17] concerns T47D.
In assay [18] the test system is U-251.
Assay [19] has as its system UACC-62.
In assay [20] the test system is HOP-62.

Regarding `N#CC1C(=S)NC(c2ccccc2)=CC12CCCCC2` (stereo unspecified), the GI50 was 22.8 µM (inactive) in assay [1]; 25.1 µM (inactive) in assay [2]; 15.8 µM (inactive) in assay [3]; > 100 µM (inactive) in assay [4]; 22.2 µM (inactive) in assay [5]; 26.5 µM (inactive) in assay [6]. In addition, the GI50 was 22.9 µM (inactive) in assay [7]; 31.5 µM (inactive) in assay [8]; 20.7 µM (inactive) in assay [9]; 94.8 µM (inactive) in assay [10]; 26.4 µM (inactive) in assay [11]; 37.5 µM (inactive) in [12]. Further, the GI50 in assay [13] was 32.1 µM (inactive); in assay [14] it was 23.3 µM (inactive); in [15], 25.1 µM (inactive); in assay [16], 38.8 µM (inactive); in assay [17], 10.8 µM (inactive); in assay [18] it was 31.1 µM (inactive). For the same molecule, the GI50 in assay [19] is 20 µM (inactive).
As for `O=[N+]([O-])C(=C(N1CCOCC1)N1CCOCC1)/C(Cl)=C(\Cl)Br`, the GI50 is 37.4 µM (inactive) in [1]; 24.8 µM (inactive) in assay [2]; 13.3 µM (inactive) in assay [3]; > 100 µM (inactive) in [4]; 3.86 µM (inactive) in assay [5]; > 100 µM (inactive) in [20]. The GI50 in assay [6] is 15.2 µM (inactive); in assay [7], 31.4 µM (inactive); in [8], 26.4 µM (inactive); in assay [9], 15.3 µM (inactive); in assay [10], > 100 µM (inactive); in assay [11] it was 18.4 µM (inactive). Besides, the GI50 was 17.1 µM (inactive) in [12]; 24.1 µM (inactive) in assay [13]; 14.5 µM (inactive) in assay [14]; 15.5 µM (inactive) in assay [16]; 15.7 µM (inactive) in assay [17]; 19 µM (inactive) in [18].
With `COc1cc(S(=O)(=O)Nc2ccc(-c3csc(/N=C\C=C\c4ccccc4)n3)cc2)ccc1Cl`, the GI50 was 20.6 µM (inactive) in [1]; 41.2 µM (inactive) in assay [2]; 39.1 µM (inactive) in [3]; > 100 µM (inactive) in assay [4]; 43.3 µM (inactive) in assay [5]; 43 µM (inactive) in [20]. For the same molecule, the GI50 is 31.2 µM (inactive) in [6]; 84.5 µM (inactive) in [7]; > 100 µM (inactive) in assay [8]; 38.1 µM (inactive) in assay [9]; 0.0484 µM (active) in assay [10]; 28.5 µM (inactive) in [11]. Also, the GI50 in assay [12] is > 100 µM (inactive); in assay [13] it was 34.8 µM (inactive); in assay [14] it was 27.3 µM (inactive); in assay [15] it was 38.3 µM (inactive); in [16], > 100 µM (inactive); in assay [17], 26.6 µM (inactive). In addition, in assay [19], the GI50 was 37.9 µM (inactive).
With `OC1(c2ccccc2)C2CC=CC2C1(c1ccccc1)c1ccccc1` (stereo unspecified), the GI50 in [1] is 15.8 µM (inactive); in [2], 43.5 µM (inactive); in [3], 30.3 µM (inactive); in assay [4] it was 19.8 µM (inactive); in assay [5], 27.8 µM (inactive); in assay [20], 70.3 µM (inactive). Moreover, the GI50 in [6] is 35.6 µM (inactive); in [7], 20.6 µM (inactive); in [8], 25 µM (inactive); in assay [9], 16.1 µM (inactive); in assay [10], 27 µM (inactive); in [12] it was 60.8 µM (inactive). The GI50 in assay [13] was 40.2 µM (inactive); in assay [14] it was 25.6 µM (inactive); in assay [15] it was 17.2 µM (inactive); in assay [16], 30.2 µM (inactive); in assay [17] it was 23.1 µM (inactive); in assay [18], 32.5 µM (inactive). For the same molecule, the GI50 in assay [19] is 23.9 µM (inactive).
On to `Nc1ncc2c(n1)-c1ccccc1OC2N1CCCCC1` (stereo unspecified), for which the GI50 in assay [1], in assay [2], in assay [3], in assay [5], in assay [7] and in assay [8] was > 100 µM (inactive) throughout. The GI50 in [9], in [10], in assay [11], in assay [12], in assay [13] and in [14] was > 100 µM (inactive) throughout. The GI50 in assay [15], in [16], in assay [17], in [18] and in assay [19] was > 100 µM (inactive) each time.
Take `Nc1nc(N)c2cc(-c3cc4ccccc4[nH]3)ccc2n1`: the GI50 in [1] was 18.1 µM (inactive); in assay [2], 18.9 µM (inactive); in assay [3] it was 23 µM (inactive); in [5], 19.7 µM (inactive); in [20], 30.8 µM (inactive); in assay [7], 17.8 µM (inactive). Also, the GI50 in assay [8] is 19.8 µM (inactive); in assay [9], 26.5 µM (inactive); in [10] it was 19.2 µM (inactive); in assay [11], 21.9 µM (inactive); in [12] it was 18.6 µM (inactive); in assay [13] it was 32.5 µM (inactive). Besides, the GI50 in [14] was 14.3 µM (inactive); in assay [15], 15.2 µM (inactive); in assay [16], 30.8 µM (inactive); in [17], 3.48 µM (inactive); in [18], 30.4 µM (inactive); in assay [19], 17.4 µM (inactive).
Take `c1ccc(NNN2NC(c3ccccc3)C2c2ccccc2)cc1` (stereo unspecified): the GI50 in assay [1] is > 100 µM (inactive); in assay [2], > 100 µM (inactive); in assay [3], > 100 µM (inactive); in assay [4] it was > 100 µM (inactive); in assay [5], 49.5 µM (inactive); in assay [6], 91.8 µM (inactive). Also, the GI50 in assay [7] was > 100 µM (inactive); in assay [8], > 100 µM (inactive); in assay [9], 55 µM (inactive); in assay [10] it was 72.4 µM (inactive); in assay [11], 86.1 µM (inactive); in assay [12], > 100 µM (inactive). For the same molecule, the GI50 in assay [13], in [14], in assay [15], in assay [16], in assay [17] and in assay [18] was > 100 µM (inactive) in each case. Further, the GI50 in assay [19] was > 100 µM (inactive).
Consider `COC(=O)C(=O)C(C(=O)C(=O)Nc1ccc(Cl)c(Cl)c1)c1nc2ccc(C(=O)c3ccccc3)cc2nc1O` (stereo unspecified), for which the GI50 in assay [1] was > 100 µM (inactive); in [2], 46.5 µM (inactive); in assay [3], > 100 µM (inactive); in assay [5], 45 µM (inactive); in assay [20], 41.6 µM (inactive); in [6], < 0.01 µM (active). Also, the GI50 in assay [7] was 29 µM (inactive); in assay [8] it was 42.9 µM (inactive); in assay [9], 15 µM (inactive); in [12], > 100 µM (inactive); in [13], 40.6 µM (inactive); in [14], 40.2 µM (inactive). Further, the GI50 in assay [15] was > 100 µM (inactive); in assay [16], 46.9 µM (inactive); in [17], 49 µM (inactive); in assay [18], 71 µM (inactive); in assay [19], > 100 µM (inactive).
As for `Cc1nn(C(=O)Cc2ccccc2)c2c1C(c1ccc([N+](=O)[O-])cc1)SC(=N)N2` (stereo unspecified), the GI50 in assay [1], in assay [2], in assay [3], in assay [4], in assay [5] and in assay [20] was > 100 µM (inactive) each time. Besides, the GI50 in assay [6], in assay [7], in assay [8], in assay [9], in assay [10] and in assay [13] was > 100 µM (inactive) throughout. The GI50 in assay [14], in assay [15], in assay [16], in assay [17] and in assay [19] was > 100 µM (inactive) throughout.
Take `Cc1cn(C2OC(CO)C(O)C2F)c(=O)[nH]c1=O` (stereo unspecified): the GI50 in assay [1] was > 100 µM (inactive); in [2] it was 89.7 µM (inactive); in [3] it was 87.1 µM (inactive); in assay [4], > 100 µM (inactive); in [5] it was > 100 µM (inactive); in assay [20] it was 95.3 µM (inactive). Moreover, the GI50 is 59.7 µM (inactive) in assay [6]; > 100 µM (inactive) in [7]; > 100 µM (inactive) in [8]; 64.3 µM (inactive) in assay [9]; 21.7 µM (inactive) in assay [10]; > 100 µM (inactive) in [11]. Besides, the GI50 in [12], in assay [13], in [15], in [16], in assay [17] and in assay [18] was > 100 µM (inactive) in each case. The GI50 in assay [19] is 64.3 µM (inactive).
Regarding `CCOc1cc(NC(C)=O)ccc1C(=O)NNS(=O)(=O)c1ccc(Cl)cc1Cl`, the GI50 in assay [1], in [2], in assay [3], in [4], in assay [5] and in assay [20] was > 50 µM (inactive) in each case. Besides, the GI50 in assay [6] was 0.232 µM (active); in assay [7], 31.5 µM (inactive); in assay [8], 10.6 µM (inactive); in assay [9], 8.75 µM (inactive); in [10], > 50 µM (inactive); in assay [11] it was > 50 µM (inactive). For the same molecule, the GI50 in assay [12] was > 50 µM (inactive); in assay [13] it was > 50 µM (inactive); in assay [14], 7.48 µM (inactive); in [15], 14.6 µM (inactive); in assay [16], > 50 µM (inactive); in [17], > 50 µM (inactive). Moreover, the GI50 in assay [19] was > 50 µM (inactive).
